{
  "source": "patent US20160186068A1",
  "about": "“METHODS AND SYSTEMS FOR PROCESSING CELLULOSIC BIOMASS” (SHELL OIL COMPANY, priority 2014, published 2016)",
  "key": {"[1]": {"assay": "Toluene extraction of reactor product: partitioning between upper organic and lower aqueous phases (Example 2)", "conditions": "for Kow UL/LL, partition coefficients for toluene extraction: toluene extractant, stirred at 150° C. for 2 hours, upper toluene-rich phase / lower aqueous-rich phase", "procedure": "(§1) The injector temperature was set at 250° C., and the detector temperature was set at 300° C.\nReaction cycles entailed 1 hour at 160° C., followed by 1 hour at 190° C., followed by 3 hours at 240° C. Six cycles of wood addition were effected, which simulated the first hydrothermal reaction. This was followed by heating overnight at 270° C. under 52 bar of H2, which simulated the second hydrothermal reaction to further hydrotreat and complete conversion of various compounds in the first reaction product, which the examples may refer to as intermediates.\nStirring was then stopped, and the reactor allowed to cool. […] Catalyst was left on the reactor bottom."}, "[2]": {"assay": "MIBC extraction of reactor product: partition between upper MIBC-rich organic layer and lower aqueous layer (Example 3)", "procedure": "as §1\nPartition coefficients for the concentration by weigh in the upper MIBC-rich organic layer, vs. the lower aqueous layer, are reported in Table 2."}, "[3]": {"assay": "Extraction of phenols from 1% aqueous solution with toluene or heptane (Examples 5E-5H)"}, "[4]": {"assay": "Solubility of MPP in deionized water (Example 5E solution)", "type": "physicochemical", "conditions": "1 wt % solution, room temperature, judged by turbidity"}, "[5]": {"assay": "Comparison of extraction solvents on simulated reaction product mixture (Examples 5A-5D)", "conditions": "for Kow: one part by weight, 2 weight percent each component in water, 25° C.", "method": "The reaction product mixture was extracted with one part of by weight solvent, with mixing for a minimum of three minutes, followed by phase separation overnight at 25° C."}, "[6]": {"assay": "MIBC re-extraction (step #2) of aqueous lower layer from initial MIBC extraction (Example 4)", "type": "physicochemical", "conditions": "for Extr #1 K UL/LL: initial (step #1) MIBC extraction; for Extr #1 LL-wt %: lower aqueous layer after initial (step #1) MIBC extraction", "procedure": "One part of the upper organic-rich upper layer from Example 3 was removed prior to distillation, extracted with one part by weight of MIBC solvent, by shaking for 3 minutes in a vial via mechanical shaker, followed by allowing to phase separate overnight at 25° C.\nExtraction efficiency as measured by the partition coefficient K increased with increasing carbon number for the light alcohol. Glycols, including ethylene glycol (EG) and propylene glycol (PG) were not extracted."}, "[7]": {"assay": "MIBC re-extraction (step #2) of aqueous lower layer from initial MIBC extraction (Example 4)", "type": "physicochemical", "conditions": "for Extr #2 % extract / Extr #2 K UL/LL: MIBC re-extraction (step #2); for Extr #2 K UL/LL / Extr #2 LL-wt %: one part MIBC by weight, 25° C.; for extraction from aqueous lower layer by MIBC (in words): MIBC re-extraction, GC results; for Extr #2 LL-wt %: lower layer after MIBC re-extraction (step #2)"}, "[8]": {"conditions": "concentration by weight in upper MIBC-rich organic layer vs. lower aqueous layer"}, "[9]": {"conditions": "Example 5F, 1% MPP in water extracted with heptane"}, "[10]": {"conditions": "Example 5B, MPP as extraction solvent"}, "[11]": {"conditions": "Example 5C, MPP/MIBC extraction solvent"}, "[12]": {"conditions": "Ex 5A, toluene extraction solvent"}, "[13]": {"conditions": "Ex 5C, 1:1 MPP/MIBC extraction solvent"}, "[14]": {"conditions": "Ex 5D, meta-cresol extraction solvent"}, "[15]": {"conditions": "Example 5G, 1% solution of m-cresol extracted with toluene"}, "[16]": {"conditions": "Example 5D, m-cresol as extraction solvent"}},
  "note": "Where two headings read alike, the source gives them in different places.",
  "data": [
    {"compound": "Cc1cccc(C)c1O", "note": "[xylenol, 2,6-xylenol]", "values": [
      {"measurement": "collected in the upper layer (toluene phase) distillation, relative to the bottom phase distillation", "setting": "[1]; after toluene extraction, separate distillation of phases", "result": 99.5, "unit": "%"},
      {"measurement": "Kow UL/LL, partition coefficients for toluene extraction", "setting": "[1]", "result": 51.79},
      {"measurement": "MIBC extraction partition coefficient", "setting": "[2]; [8]", "result": 87.26}
    ]},
    {"compound": "CCCCCCC", "note": "[heptane]", "values": [
      {"measurement": "extraction solvent lost to the aqueous phase", "setting": "[3]; Example 5F, heptane extraction", "result": 0.07, "unit": "wt %"},
      {"measurement": "extraction solvent lost to the aqueous layer", "setting": "[3]; Example 5H, heptane extraction", "result": 0.015, "unit": "%"}
    ]},
    {"compound": "CCCc1ccc(O)c(OC)c1", "note": "[MPP, 2-methoxy-4-propylphenol]", "values": [
      {"measurement": "Kow UL/LL, partition coefficients for toluene extraction", "setting": "[1]", "result": 33.59},
      {"measurement": "partition coefficient, weight percent in organic layer extract vs. remaining lower layer aqueous fraction", "setting": "[3]; Example 5E, 1 wt % MPP in deionized water extracted with one part toluene", "result": 161.7},
      {"measurement": "recovered by extraction from the aqueous phase", "setting": "[3]; Example 5E, MPP as a 1% solution, toluene as solvent", "result": "More than 99%"},
      {"measurement": "apparent partition coefficient", "setting": "[3]; [9]", "result": 76},
      {"measurement": "removed down to (residual in water)", "setting": "[3]; [9]", "result": 0.08, "unit": "wt %"},
      {"measurement": "solubility in deionized water", "setting": "[4]", "result": "only partial solubility"},
      {"measurement": "amount lost to the aqueous phase", "setting": "[5]; [10]", "result": 0.15, "unit": "wt %"},
      {"measurement": "apparent partition coefficient between organic and aqueous layers", "setting": "[5]; [10]", "result": 612},
      {"measurement": "extractant lost to the aqueous phase", "setting": "[5]; [11]", "result": 0.12, "unit": "wt %"},
      {"measurement": "measured in the final organic extract", "setting": "[5]; [11]", "result": 55, "unit": "wt %"},
      {"measurement": "oil/water partition coefficient", "setting": "[5]; [11]", "result": 462},
      {"measurement": "MIBC extraction partition coefficient", "setting": "[2]; [8]", "result": ">50"}
    ]},
    {"compound": "OCCO", "note": "[EG, ethylene glycol]", "values": [
      {"measurement": "Extr #1 K UL/LL", "setting": "[6]", "result": 0.37},
      {"measurement": "Extr #1 LL-wt %", "setting": "[6]", "result": 0.20, "unit": "wt %"},
      {"measurement": "Extr #2 % extract", "setting": "[7]", "result": "−43", "unit": "%"},
      {"measurement": "Extr #2 K UL/LL", "setting": "[7]", "result": 0.045},
      {"measurement": "extraction from aqueous lower layer by MIBC (in words)", "setting": "[7]", "result": "not extracted"},
      {"measurement": "Extr #2 LL-wt %", "setting": "[7]", "result": 0.29, "unit": "wt %"},
      {"measurement": "Kow", "setting": "[5]; [12]", "result": 0.000},
      {"measurement": "Kow", "setting": "[5]; Ex 5B, MPP extraction solvent", "result": 0.037},
      {"measurement": "Kow", "setting": "[5]; [13]", "result": 0.079},
      {"measurement": "Kow", "setting": "[5]; [14]", "result": 0.036}
    ]},
    {"compound": "CO", "note": "[MeOH, Methanol]", "values": [
      {"measurement": "Extr #1 LL-wt %", "setting": "[6]", "result": 0.18, "unit": "wt %"},
      {"measurement": "Extr #2 % extract", "setting": "[7]", "result": 16, "unit": "%"},
      {"measurement": "Extr #2 LL-wt %", "setting": "[7]", "result": 0.15, "unit": "wt %"},
      {"measurement": "MIBC extraction partition coefficient", "setting": "[2]; [8]", "result": 0.30}
    ]},
    {"compound": "CCO", "note": "[EtOH, ethanol]", "values": [
      {"measurement": "Extr #2 % extract", "setting": "[7]", "result": 39, "unit": "%"},
      {"measurement": "Extr #2 LL-wt %", "setting": "[7]", "result": 0.16, "unit": "wt %"}
    ]},
    {"compound": "1-propanol [PrOH]", "values": [
      {"measurement": "Extr #2 % extract", "setting": "[7]", "result": 71, "unit": "%"},
      {"measurement": "Extr #2 K UL/LL", "setting": "[7]", "result": 1.429},
      {"measurement": "Extr #2 LL-wt %", "setting": "[7]", "result": 0.10, "unit": "wt %"}
    ]},
    {"compound": "Cc1ccccc1", "note": "[toluene]", "values": [
      {"measurement": "extraction solvent lost to the aqueous phase", "setting": "[3]; Example 5G, toluene extraction", "result": 0.04, "unit": "wt %"},
      {"measurement": "loss of toluene extraction solvent", "setting": "[3]; toluene extraction, lost to the lower layer", "result": "less than 1%"}
    ]},
    {"compound": "CC(O)CO", "note": "(centres unmarked) [PG, 1,2-propylene glycol]", "values": [
      {"measurement": "Extr #1 K UL/LL", "setting": "[6]", "result": 0.33},
      {"measurement": "Extr #1 LL-wt %", "setting": "[6]", "result": 0.38, "unit": "wt %"},
      {"measurement": "Extr #2 % extract", "setting": "[7]", "result": "−30", "unit": "%"},
      {"measurement": "Extr #2 K UL/LL", "setting": "[7]", "result": 0.294},
      {"measurement": "extraction from aqueous lower layer by MIBC (in words)", "setting": "[7]", "result": "not extracted"},
      {"measurement": "Extr #2 LL-wt %", "setting": "[7]", "result": 0.49, "unit": "wt %"},
      {"measurement": "Kow", "setting": "[5]; [12]", "result": 0.013},
      {"measurement": "Kow", "setting": "[5]; Ex 5B, MPP extraction solvent", "result": 0.084},
      {"measurement": "Kow", "setting": "[5]; [13]", "result": 0.042},
      {"measurement": "Kow", "setting": "[5]; [14]", "result": 0.197},
      {"measurement": "MIBC extraction partition coefficient", "setting": "[2]", "result": 0.33}
    ]},
    {"compound": "CC(C)CC(C)O", "note": "(centres unmarked) [MIBC, methylisobutylcarbinol]", "values": [
      {"measurement": "co-solvent lost to aqueous", "setting": "[5]; [11]", "result": 1, "unit": "%"},
      {"measurement": "MIBC extraction partition coefficient", "setting": "[2]", "result": 48.12}
    ]},
    {"compound": "Cc1cccc(O)c1", "note": "[cresol, meta-cresol]", "values": [
      {"measurement": "apparent partition coefficient between organic and aqueous phases", "setting": "[3]; [15]", "result": 20.8},
      {"measurement": "residual left in the aqueous layer", "setting": "[3]; [15]", "result": 0.05, "unit": "wt %"},
      {"measurement": "remained with the aqueous layer", "setting": "[3]; Example 5H, 1% m-cresol solution extracted with heptane", "result": 0.56, "unit": "wt %"},
      {"measurement": "apparent partition coefficient between oil and water", "setting": "[5]; [16]", "result": 39},
      {"measurement": "lost to the aqueous layer", "setting": "[5]; [16]", "result": 2.7, "unit": "wt %"}
    ]}
  ]
}
